Data on eight compounds can be found in patent US10301286B2, “Piperazine derivative” (Astellas Pharma Inc., priority 2015, dated 2019).

One series has as its system Male SD rats. Kind of series: Rat erection-inducing action. In kind it is in vivo. As to conditions: 10 mg/kg intravenously, erections up to one hour after administration, vs vehicle, P<0.05. The procedure: Male SD rats (Charles River Laboratories Japan, Inc.) were used. A test compound (10 mg/kg) or the vehicle (20% dimethyl acetamide, 10% Cremophor (registered trademark), 70% physiological saline) was administered intravenously through the tail vein. After administration, the rats were transferred to transparent observation cages made of plastic to measure the erection times of up to one hour after administration. The measurements were carried out for five groups (3 to 7 animals per group): vehicle groups, Example compound groups (Ex 87, 88, and 89), and THIQ group, which had been known as an MC4 receptor agonist (J. Med. Chem., 45, 4589-4593 (2002)), as a positive control. For a statistical significance test, Dunnett's multiple comparison test was used for the comparison with vehicle control group, and it was determined whether there was an erection-inducing effect with a statistically significant difference (P<0.05).

The target in another series is rat MC4 receptor (Rattus norvegicus (Rat), UniProt P70596). Kind of series: Rat MC4 receptor activation, cAMP production in cells expressing rat MC4 receptor. In kind it is cell-based. As to conditions: FreeStyle 293-F cells transiently expressing rat MC4 receptor, α-MSH maximum = 100%. An excerpt: (1) Construction of Rat MC4 Receptor-Expressing Vector
A rat MC4 receptor gene (GenBank Accession No.: NM_013099.2) was introduced into an expression vector pcDNA™ 3.1/V5-His TOPO (registered trademark) (Thermo Fisher Scientific Inc.).
(2) Construction of Cells Transiently Expressing Rat MC4 Receptor
An expression vector for a rat MC4 receptor was introduced into FreeStyle™ 293-F cell (Thermo Fisher Scientific Inc.). For the introduction, electroporation was employed. That is, 1×10^7 FreeStyle™ 293-F cell were suspended in 80 μL of an electroporation buffer (Thermo Fisher Scientific Inc.), and 20 μg of the expression vector was added thereto. The resultant was put into a cuvette (OC-100 Processing Assembly, MaxCyte, Inc.) and electroporated with MaxCyte STX (registered trademark) (MaxCyte, Inc.). The cells were cultured over one day, suspended in a Cell Banker (registered trademark) 1 (JUJI FIELD Inc.), and stored frozen until use.
(3) Measurement of Amount of cAMP Produced
Measurement was carried out in accordance with the attached instructions, using a LANCE (registered trademark) Ultra cAMP Kit (PerkinElmer, Inc.). That is, after dissolution in DMSO, the test compound (a final concentration of 1 pM to 30 μM) diluted with an assay buffer (Hank's balanced salt solution, 5 mM HEPES, 0.5 mM IBMX, 0.1% bovine serum albumin, pH 7.4), or α-MSH (Bachem Inc., a final concentration of 1 pM to 30 μM) was added to OptiPlate-384 (PerkinElmer, Inc.). Furthermore, a suspension of cells transiently expressing the rat MC4 receptor, that had been prepared using the assay buffer, was added thereto at 1,000 cells/well, followed by being left to stand at room temperature for about 1 hour. Thereafter, an Eu-cAMP tracer solution and an ULight™-anti-cAMP solution were added thereto, followed by being left to stand at room temperature for about 1 hour. The amount of cAMP was calculated using EnVision (registered trademark) (PerkinElmer Inc.).
For the agonistic activity, an efficacy (EC50 (μM)) was calculated by a non-linear regression method with a Sigmoid-Emax model, by defining the maximum reaction with α-MSH as 100% and the reaction with the vehicle alone as 0%, respectively.
A general note: Cyclic AMP is a second messenger, typically raised through Gs and lowered through Gi signalling.

Series [1] has as its system Male Sprague Dawley (SD) rats. The series can be described thus: Action on drug-induced voiding dysfunction model rat. The series is classed as in vivo. As to conditions: po, administered into the stomach, atropine sulfate + midodrine hydrochloride model, inhibition of decrease in voiding efficiency or increase of residual urine, P<0.05, read-out: Minimum effective dose. The source says: Male Sprague Dawley (SD) rats (Japan SLC, Inc.) were anesthetized with isoflurane and a cannula was placed in bladder, the stomach, and the jugular vein. Then, the rats were awakened in a Ballman cage (Natsume Seisakusho Co., Ltd.). After a post-operative stabilization period, physiological saline was continuously infused into the bladder by an infusion pump (Terumo Corporation, product number: TE-331S) to induce voiding. Infusion of the physiological saline was stopped at the time of voiding, and the amount of the voided urine was measured using an electronic top-loading balance placed under the Ballman cage. After completion of voiding, the residual urine was collected by gravity through the cannula placed in the bladder, and weighed, and the weight was defined as the amount of the residual urine. Further, the intravesical pressure was measured by a pressure transducer (Nihon Kohden Corporation, product numbers: TP-400, TDX-100) through the bladder cannula. The test compound or the vehicle was administered into the stomach, and atropine sulfate (Sigma-Aldrich, Inc., 0.01 mg/kg), which is an anticholinergic drug, and midodrine hydrochloride (Sigma-Aldrich, Inc., 0.3 mg/kg), which is an α1 adrenergic receptor stimulant, were administered intravenously to induce voiding dysfunctions. The voiding efficiency (=[voided amount/(voided amount+amount of residual urine)]×100) and the amount of the residual urine before and after administration of the test compound or the vehicle were measured, and the amount changed was evaluated. The value with vehicle administration and the value with the test compound administration were compared in a Dunnett's multiple comparison test with a statistically significant difference (P<0.05), and the minimum dose at which the inhibitory effect on a decrease in voiding efficiency or an increase of the amount of residual urine had been observed was defined as a minimal effective dose (3 to 12 animals per group).

Each structure is given as a SMILES string. Counter-ions that a name gives are not always drawn.

rat MC4 receptor, sequence (P70596 whole entry): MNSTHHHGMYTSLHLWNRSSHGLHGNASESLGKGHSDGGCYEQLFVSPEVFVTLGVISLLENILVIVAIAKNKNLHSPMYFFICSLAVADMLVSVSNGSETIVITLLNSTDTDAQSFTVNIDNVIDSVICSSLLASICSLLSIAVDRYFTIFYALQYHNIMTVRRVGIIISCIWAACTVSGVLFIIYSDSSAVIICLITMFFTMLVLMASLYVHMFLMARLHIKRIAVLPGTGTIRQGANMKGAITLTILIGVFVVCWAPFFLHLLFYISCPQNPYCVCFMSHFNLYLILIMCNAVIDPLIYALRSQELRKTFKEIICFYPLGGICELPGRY

Usually EC50 stands for the midpoint of the concentration-response curve. Low readings indicate higher potency in that assay, high ones lower potency in that assay. Regarding `Cc1cc(C)c(C[C@@H](C(=O)O)N2CCN(C(=O)[C@@H]3CN(C(C)(C)C)C[C@H]3c3ccc(Cl)cc3F)[C@@H](C)C2)c(C)c1` [Example 89], in the series on Male SD rats, the erection-inducing effect result is on record as “did not exhibit an erection-inducing effect”. Moreover, on rat MC4 receptor, a half-maximal effect (EC50) was put at 0.0031 µM. The minimal effective dose in series [1] came out at 0.1 mg/kg.

`C[C@H]1CN([C@@H](Cc2ccc3c(c2)CCC3)C(=O)O)CCN1C(=O)[C@@H]1CN(C(C)(C)C)C[C@H]1c1ccc(F)cc1F` [Example 5, (2S)-2-[(3S)-4-{[(3S,4R)-1-tert-butyl-4-(2,4-difluorophenyl)pyrrolidin-3-yl]carbonyl}-3-methylpiperazin-1-yl]-3-(2,3-dihydro-1H-inden-5-yl)propanoic acid dihydrochloride]: the EC50 at rat MC4 receptor amounted to 0.026 µM. The minimal effective dose in series [1] worked out at 0.3 mg/kg.

`Cc1ccc(C[C@@H](C(=O)O)N2CCN(C(=O)[C@@H]3CN(C4CCOCC4)C[C@H]3c3ccc(Cl)cc3F)[C@@H](C)C2)c(F)c1` [Example 87, (2S)-2-[(3S)-4-{[(3S,4R)-4-(4-chloro-2-fluorophenyl)-1-(tetrahydro-2H-pyran-4-yl)pyrrolidin-3-yl]carbonyl}-3-methylpiperazin-1-yl]-3-(2-fluoro-4-methylphenyl)propanoic acid dihydrochloride]: the erection-inducing effect entry in the series with Male SD rats is “did not exhibit an erection-inducing effect”. Further, at rat MC4 receptor, it took 0.021 µM to reach a half-maximal effect (EC50). In addition, in series [1], the minimal effective dose is 0.1 mg/kg.

As to `Cc1cc(F)c(C[C@@H](C(=O)O)N2CCN(C(=O)[C@@H]3CN(C(C)(C)C)C[C@H]3c3ccc(Cl)cc3F)[C@@H](C)C2)c(F)c1` [Example 76], at rat MC4 receptor, the EC50 is 0.0017 µM. Moreover, the minimal effective dose in series [1] worked out at 0.03 mg/kg.

`Cc1cc(C)c(C[C@@H](C(=O)O)N2CCN(C(=O)[C@@H]3CN(C4CCOCC4)C[C@H]3c3ccc(Cl)cc3F)[C@@H](C)C2)c(F)c1` [Example 88]: the erection-inducing effect result in the series with Male SD rats was “did not exhibit an erection-inducing effect”. On rat MC4 receptor, this compound returned an EC50 of 0.011 µM. The minimal effective dose in series [1] amounted to 0.1 mg/kg.

On to `CCC[C@H]1CN([C@@H](Cc2ccc3ccccc3c2)C(=O)O)CCN1C(=O)[C@@H]1CN(C(C)(C)C)C[C@H]1c1ccc(F)cc1F` [Example 9], for which, on rat MC4 receptor, the response was half-maximal at 0.0026 µM (EC50). In addition, in series [1], the minimal effective dose came out at 3 mg/kg.

The compound `Cc1ccc(C[C@@H](C(=O)O)N2CCN(C(=O)[C@@H]3CN(C(C)(C)C)C[C@H]3c3ccc(Cl)cc3F)[C@@H](C)C2)c(F)c1` [Example 4, (2S)-2-[(3S)-4-{[(3S,4R)-1-tert-butyl-4-(4-chloro-2-fluorophenyl)pyrrolidin-3-yl]carbonyl}-3-methylpiperazin-1-yl]-3-(2-fluoro-4-methylphenyl)propanoic acid dihydrochloride] showed an EC50 at rat MC4 receptor of 0.0013 µM. Also, the minimal effective dose in series [1] was 0.03 mg/kg.

With `Cc1ccc(C[C@@H](C(=O)O)N2CCN(C(=O)[C@@H]3CN(C(C)(C)C)C[C@H]3c3ccc(Cl)cc3F)[C@@H](C)C2)cc1` [Example 11], a half-maximal effect on rat MC4 receptor (EC50) was put at 0.021 µM. Further, the minimal effective dose in series [1] is 0.3 mg/kg.
